According to US20170112878A1, “PROGRAMMABLE UNIVERSAL CELL RECEPTORS AND METHOD OF USING THE SAME” (Sorrento Therapeutics, Inc., priority 2015, published 2017):

System: PUCR comprising 38C2 scFab expressed on the membrane of the NKL cells
Assay: Programming of PUCR on NKL cells with AZD-PEG8-biotin, detected with DTAF-conjugated streptavidin by FACS
Type: cell-based
Conditions: 1 μM or 10 μM, 4° C., 1 hour, PUCR-expressing vs wild-type NKL cells
Text: To generate constructs encoding a PUCR comprising humanized 38C2 scFab, a nucleic acid encoding the humanized 38C2 scFab was designed by fusing a nucleic acid encoding humanized 38C2 […] LC domain, a nucleic acid encoding a poly-GlySer linker, a nucleic acid encoding the humanized 38C2 VH domain, and a nucleic acid encoding the human gamma 1 HC constant domain 1. The resulting nucleic acid fragment was cloned into a retroviral vector to encode a PUCR comprising an N-terminal leader peptide, followed by the 38C2 scFab, followed by a hybrid CD8 and CD28 hinge, a CD28 transmembrane domain, a CD28 intracellular domain, and a CD3ζ intracellular domain. The nucleic acid and amino acid sequences of the PUCR are shown below. NKL cells were transduced with the viral vector encoding the PUCR.
The PUCR comprising 38C2 scFab expressed on the membrane of the NKL cells was conjugated (i.e., programmed) with the specificity agent AZD-PEG8-biotin (see FIG. 11). […] AZD-PEG8-biotin comprises the reactivity moiety azetidinone which reacts with and forms a stable covalent bond with the reactive lysine of the 38C2 scFab within the PUCR. […] Fluorescence was measured using a ACEA Biosciences NovoCyte flow cytometer. Data was analyzed with FlowJo software, and DTAF-conjugated streptavidin binding was quantified by increased mean fluorescence intensity. […]

O=C(CCCC[C@@H]1SC[C@@H]2NC(=O)N[C@@H]21)NCCOCCOCCOCCOCCOCCOCCNC(=O)CCOCCOCCC(=O)Nc1ccc(CCC(=O)N2CCC2=O)cc1 [AZD-PEG8-Biotin, 5-[(3aS,4S,6aR)-2-oxo-1,3,3a,4,6,6a-hexahydrothieno[3,4-d]imidazol-4-yl]-N-[2-[2-[2-[2-[2-[2-[2-[3-[2-[3-oxo-3-[4-[3-oxo-3-(2-oxoazetidin-1-yl)propyl]anilino]propoxy]ethoxy]propanoylamino]ethoxy]ethoxy]ethoxy]ethoxy]ethoxy]ethoxy]ethyl]pentanamide]
conjugation (programming) of PUCR, DTAF-conjugated streptavidin binding: successfully programmed
